# Assay results published in US12714706B2, “Methods of treating small cell lung cancer with lurbinectedin formulations” (PHARMA MAR, S.A., priority 2019, dated 2026).
# Assay: Analytical results and impurity profile of batches of Form A and Form B of lurbinectedin
# Type: physicochemical
# Parameters: Impurity RRT approx. 1.10-1.11 / Impurity RRT approx. 1.12 / Impurity RRT approx. 1.27-1.34 / Impurity RRT approx. 1.29-1.30 / Impurity RRT approx. 1.30-1.32 / Impurity RRT approx. 1.28-1.37 / Impurity RRT approx. 2.37 / Impurity RRT approx. 2.41-2.52 / Impurity RRT approx. 2.85 / Impurity RRT approx. 0.66-0.69 / Impurity RRT approx. 0.72-0.76: unit not given here
# Conditions: for Impurity RRT aprox 0.72-0.76 / Impurity RRT aprox 0.66-0.69 / Impurity RRT aprox 1.10-1.11: batches of Form B
# Text: Several batches of Form A of lurbinectedin were manufactured by this method.
# Several batches of Form B of lurbinectedin were manufactured by this method.
# [1] = impurity profile, batches of Form A
# [2] = batches of Form B of lurbinectedin
# [3] = batches of Form A of lurbinectedin
SMILES,Impurity RRT approx. 0.72-0.76 [1],Impurity RRT approx. 1.10-1.11 [1],Impurity RRT approx. 1.29-1.30 [1],Impurity RRT approx. 1.30-1.32 [1],Residual Solvents Acetonitrile [2],Residual Solvents CH2Cl2 [2],Residual Solvents Methanol [2],Residual Solvents Pentane [2],Residual Solvents Total [2],Total Impurities [2],Water Content [2],Impurity RRT aprox 0.72-0.76 (impurity profile),also measured
COc1ccc2[nH]c3c(c2c1)CCN[C@]31CS[C@@H]2c3c(OC(C)=O)c(C)c4c(c3[C@H](COC1=O)N1[C@@H]2[C@H]2c3c(cc(C)c(OC)c3O)C[C@@H]([C@@H]1O)N2C)OCO4 [Batch K02],0.09,0.13,0.07,0.19,–,–,–,–,–,–,–,–,–
COc1ccc2[nH]c3c(c2c1)CCN[C@]31CS[C@@H]2c3c(OC(C)=O)c(C)c4c(c3[C@H](COC1=O)N1[C@@H]2[C@H]2c3c(cc(C)c(OC)c3O)C[C@@H]([C@@H]1O)N2C)OCO4 [Batch M01],0.10,0.08,0.10,0.18,–,–,–,–,–,–,–,–,–
COc1ccc2[nH]c3c(c2c1)CCN[C@]31CS[C@@H]2c3c(OC(C)=O)c(C)c4c(c3[C@H](COC1=O)N1[C@@H]2[C@H]2c3c(cc(C)c(OC)c3O)C[C@@H]([C@@H]1O)N2C)OCO4 [Batch 1711182-2],–,–,–,–,<LOQ,<LOQ,<LOQ,<LOQ,0.0 % w/w,0.3 % Area,2.4 % w/w,0.34 % area,–
COc1ccc2[nH]c3c(c2c1)CCN[C@]31CS[C@@H]2c3c(OC(C)=O)c(C)c4c(c3[C@H](COC1=O)N1[C@@H]2[C@H]2c3c(cc(C)c(OC)c3O)C[C@@H]([C@@H]1O)N2C)OCO4 [Batch R04],–,–,–,–,<LOQ,<LOQ,<LOQ,<LOQ,0.0 % w/w,0.4 % Area,2.6 % w/w,0.26 % area,Impurity RRT aprox 0.66-0.69 (impurity profile): 0.05 % area; Impurity RRT aprox 1.10-1.11 (impurity profile): 0.07 % area
COc1ccc2[nH]c3c(c2c1)CCN[C@]31CS[C@@H]2c3c(OC(C)=O)c(C)c4c(c3[C@H](COC1=O)N1[C@@H]2[C@H]2c3c(cc(C)c(OC)c3O)C[C@@H]([C@@H]1O)N2C)OCO4 [Batch 1711189-2],–,–,–,–,<LOQ,<LOQ,<LOQ,<LOQ,0.0 % w/w,0.3 % Area,2.5 % w/w,0.30 % area,Impurity RRT aprox 0.66-0.69 (impurity profile): 0.05 % area
COc1ccc2[nH]c3c(c2c1)CCN[C@]31CS[C@@H]2c3c(OC(C)=O)c(C)c4c(c3[C@H](COC1=O)N1[C@@H]2[C@H]2c3c(cc(C)c(OC)c3O)C[C@@H]([C@@H]1O)N2C)OCO4 [Batch F02],0.06,0.17,–,0.09,–,–,–,–,–,–,–,–,Impurity RRT approx. 0.66-0.69 [1]: 0.19; Impurity RRT approx. 1.27-1.34 [1]: 0.12; Impurity RRT approx. 2.41-2.52 [1]: 0.07; Impurity RRT approx. 2.85 [1]: 0.07
COc1ccc2[nH]c3c(c2c1)CCN[C@]31CS[C@@H]2c3c(OC(C)=O)c(C)c4c(c3[C@H](COC1=O)N1[C@@H]2[C@H]2c3c(cc(C)c(OC)c3O)C[C@@H]([C@@H]1O)N2C)OCO4 [Batch P02],–,0.09,0.06,0.13,–,–,–,–,–,–,–,–,Impurities Total [3]: 0.4 % Area; Residual Solvents Acetonitrile [3]: <LOQ; Residual Solvents Dichloro-methane [3]: <LOQ; Residual Solvents Ethyl acetate [3]: <LOQ; Residual Solvents Hexane [3]: 0.01 % w/w; Residual Solvents Methanol [3]: 1.7 % w/w; Residual Solvents Pentane [3]: 0.2 % w/w; Residual Solvents Total [3]: 1.9 % w/w; Water Content [3]: 1.2 % w/w
COc1ccc2[nH]c3c(c2c1)CCN[C@]31CS[C@@H]2c3c(OC(C)=O)c(C)c4c(c3[C@H](COC1=O)N1[C@@H]2[C@H]2c3c(cc(C)c(OC)c3O)C[C@@H]([C@@H]1O)N2C)OCO4 [Batch R03],–,–,–,–,<LOQ,<LOQ,<LOQ,<LOQ,0.0 % w/w,0.3 % Area,1.7 % w/w,0.22 % area,Impurity RRT aprox 0.66-0.69 (impurity profile): 0.05 % area
COc1ccc2[nH]c3c(c2c1)CCN[C@]31CS[C@@H]2c3c(OC(C)=O)c(C)c4c(c3[C@H](COC1=O)N1[C@@H]2[C@H]2c3c(cc(C)c(OC)c3O)C[C@@H]([C@@H]1O)N2C)OCO4 [Batch 1799069],–,–,–,–,<LOQ,<LOQ,<LOQ,<LOQ,0.0 % w/w,0.4 % Area,2.0 % w/w,0.31 % area,Impurity RRT aprox 1.10-1.11 (impurity profile): 0.06 % area
COc1ccc2[nH]c3c(c2c1)CCN[C@]31CS[C@@H]2c3c(OC(C)=O)c(C)c4c(c3[C@H](COC1=O)N1[C@@H]2[C@H]2c3c(cc(C)c(OC)c3O)C[C@@H]([C@@H]1O)N2C)OCO4 [Batch R01],–,–,–,–,<LOQ,<LOQ,<LOQ,<LOQ,0.0 % w/w,0.3 % Area,1.9 % w/w,0.22 % area,Residual Solvents AcOEt [2]: <LOQ; Residual Solvents Hexane [2]: <LOQ; Impurity RRT aprox 1.10-1.11 (impurity profile): 0.09 % area
COc1ccc2[nH]c3c(c2c1)CCN[C@]31CS[C@@H]2c3c(OC(C)=O)c(C)c4c(c3[C@H](COC1=O)N1[C@@H]2[C@H]2c3c(cc(C)c(OC)c3O)C[C@@H]([C@@H]1O)N2C)OCO4 [Batch M02],0.08,0.10,0.17,0.08,–,–,–,–,–,–,–,–,Impurity RRT approx. 1.28-1.37 [1]: 0.08
COc1ccc2[nH]c3c(c2c1)CCN[C@]31CS[C@@H]2c3c(OC(C)=O)c(C)c4c(c3[C@H](COC1=O)N1[C@@H]2[C@H]2c3c(cc(C)c(OC)c3O)C[C@@H]([C@@H]1O)N2C)OCO4 [Batch M03],0.12,0.11,0.10,0.11,–,–,–,–,–,–,–,–,–
COc1ccc2[nH]c3c(c2c1)CCN[C@]31CS[C@@H]2c3c(OC(C)=O)c(C)c4c(c3[C@H](COC1=O)N1[C@@H]2[C@H]2c3c(cc(C)c(OC)c3O)C[C@@H]([C@@H]1O)N2C)OCO4 [Batch R02],–,–,–,–,<LOQ,<LOQ,–,<LOQ,0.0 % w/w,0.3 % Area,2.0 % w/w,0.28 % area,–
COc1ccc2[nH]c3c(c2c1)CCN[C@]31CS[C@@H]2c3c(OC(C)=O)c(C)c4c(c3[C@H](COC1=O)N1[C@@H]2[C@H]2c3c(cc(C)c(OC)c3O)C[C@@H]([C@@H]1O)N2C)OCO4 [Batch P03],–,–,0.09,–,–,–,–,–,–,–,–,–,Impurities Total [3]: 0.3 % Area; Residual Solvents Acetonitrile [3]: <LOQ; Residual Solvents Dichloro-methane [3]: 0.01 % w/w; Residual Solvents Ethyl acetate [3]: <LOQ; Residual Solvents Hexane [3]: <LOQ; Residual Solvents Methanol [3]: 1.6 % w/w; Residual Solvents Pentane [3]: 0.3 % w/w; Residual Solvents Total [3]: 1.9 % w/w; Water Content [3]: 1.6 % w/w; Impurity RRT approx. 1.12 [1]: 0.07
COc1ccc2[nH]c3c(c2c1)CCN[C@]31CS[C@@H]2c3c(OC(C)=O)c(C)c4c(c3[C@H](COC1=O)N1[C@@H]2[C@H]2c3c(cc(C)c(OC)c3O)C[C@@H]([C@@H]1O)N2C)OCO4 [Batch G01],0.11,0.50,–,0.13,–,–,–,–,–,–,–,–,Impurity RRT approx. 0.66-0.69 [1]: 0.06
COc1ccc2[nH]c3c(c2c1)CCN[C@]31CS[C@@H]2c3c(OC(C)=O)c(C)c4c(c3[C@H](COC1=O)N1[C@@H]2[C@H]2c3c(cc(C)c(OC)c3O)C[C@@H]([C@@H]1O)N2C)OCO4 [Batch P05],–,–,–,–,<LOQ,<LOQ,<LOQ,<LOQ,0.0 % w/w,0.3 % Area,2.1 % w/w,0.24 % area,Residual Solvents AcOEt [2]: <LOQ; Residual Solvents Hexane [2]: <LOQ; Impurity RRT aprox 1.10-1.11 (impurity profile): 0.07 % area
COc1ccc2[nH]c3c(c2c1)CCN[C@]31CS[C@@H]2c3c(OC(C)=O)c(C)c4c(c3[C@H](COC1=O)N1[C@@H]2[C@H]2c3c(cc(C)c(OC)c3O)C[C@@H]([C@@H]1O)N2C)OCO4 [Batch P01],–,0.15,0.09,–,–,–,–,–,–,–,–,–,Impurities Total [3]: 0.3 % Area; Residual Solvents Acetonitrile [3]: 0.01 % w/w; Residual Solvents Dichloro-methane [3]: <LOQ; Residual Solvents Ethyl acetate [3]: <LOQ; Residual Solvents Hexane [3]: <LOQ; Residual Solvents Methanol [3]: 1.1 % w/w; Residual Solvents Pentane [3]: 0.2 % w/w; Residual Solvents Total [3]: 1.4 % w/w; Water Content [3]: 0.9 % w/w
COc1ccc2[nH]c3c(c2c1)CCN[C@]31CS[C@@H]2c3c(OC(C)=O)c(C)c4c(c3[C@H](COC1=O)N1[C@@H]2[C@H]2c3c(cc(C)c(OC)c3O)C[C@@H]([C@@H]1O)N2C)OCO4 [Batch K04],–,0.20,0.11,0.08,–,–,–,–,–,–,–,–,–
COc1ccc2[nH]c3c(c2c1)CCN[C@]31CS[C@@H]2c3c(OC(C)=O)c(C)c4c(c3[C@H](COC1=O)N1[C@@H]2[C@H]2c3c(cc(C)c(OC)c3O)C[C@@H]([C@@H]1O)N2C)OCO4 [Batch K03],0.07,0.17,0.37,0.08,–,–,–,–,–,–,–,–,–
